According to US9169315B2, “Heparin cofactor II fragments with anti-inflammatory and anti-coagulant activity” (XIMMUNE AB, priority 2009, dated 2015):
No end group written: not given here.

Key:
E. coli 0111:B4 LPS = test: LPS model in vivo (E. coli LPS-induced shock); design: species or system C57BL/6 mice; conditions: for IFN-γ in blood / IL-6 in blood / MCP-1 in blood / TNF-α in blood / IL-10 in blood / Platelet counts: 0.5 mg peptide; for IFN-γ in blood / IL-6 in blood / MCP-1 in blood / TNF-α in blood: 8 and 20 h after LPS injection; for IL-10 in blood: 8 or 20 h after LPS injection; for Survival: 18 mg/kg E. coli LPS i.p., peptide i.p., followed 7 days; for Weight: followed for 7 days; for Platelet counts: 8 and 20 h after LPS
Experimental: Septic shock in C57BL6 mice was induced by intraperitoneal injection of 18 mg/kg E. coli LPS. Sixty minutes later KYE28 and KYE21 (0.2 and 0.5 mg; in PBS) or buffer only was administered. […] (C) Peptide treatment affects the number of platelets in the LPS-induced shock model. (D) In separate experiments mice were injected with LPS followed by administration of 0.5 mg of KYE28 or KYE21, or buffer. Animals were sacrificed at 8 h, 20 h, or after 7 days and the number of platelets in blood counted using the VetScanSystem. […] Cytokines were measured in blood from animals sacrificed at 8 or 20 h after LPS injection. […] C57BL6 were i.p. injected with […] LPS followed by 0.5 mg of KYE28 After 20 h mice were sacrificed and cytokine levels in blood were determined. (KYE28; n=10). All data are representative of two independent experiment.
RAW 264.7 macrophages were stimulated with 10 ng/ml E. coli or P. aeruginosa LPS in combination with indicated concentrations NLF20. […] Clotting times were determined without (control) or with 20 μM of the peptide. Activated partial thromboplastin time (aPTT) was measured by incubating the peptides at the indicated concentrations in citrated human plasma for 1 minute followed by the addition of 100 μl aPTT reagent (aPTT Automate, Diagnostica Stago) for 60 seconds at 37° C. Clotting was initiated by the addition of CaCl2 solution. Results illustrating the prothombin time assay (PT) and thrombin clotting time (TCT) are also presented. (C) Septic shock in C57BL6 mice was induced by intraperitoneal injection of 18 mg/kg E. coli LPS. NLF20 (0.2 or 0.5 mg in 10 mM Tris, pH 7.4) or buffer only was administered. […] (E) Weight was followed for 7 days. […] In separate experiments mice were injected with LPS followed by administration of 0.5 mg of NLF20, or buffer. Animals were sacrificed at 8 h, 20 h, and survivors after 7 days and the number of platelets in blood counted using the VetScanSystem. (F) Administration of NLF20 (0.5 mg) selectively modulates the cytokine response compared to control mice. Cytokines were measured in blood from animals sacrificed at 8 or 20 h after LPS injection. (G) NLF abrogates inflammation in lungs. Lungs were analyzed by light microscopy after staining with hematoxylin-eosin, or analyzed by scanning electron microscopy 20 h after LPS injection i.p., followed by treatment with NLF20 (0.5 mg) or buffer.
(§1) Male C57BL/6 mice (8-10 weeks, 22+/−5 g), were injected intraperitoneally with 18 mg E. coli 0111:B4 LPS (Sigma) per kg of body weight. Thirty minutes after LPS injection, 0.5 mg KYE28, KYE21 or buffer alone was injected intraperitoneally into the mice. Survival and status was followed during seven days. For blood collection and histochemistry, mice were sacrificed 20 h after LPS challenge, and lungs were removed and fixed. These experiments were approved by the Laboratory Animal Ethics Committee of Malmö/Lund.
as §1, with “NLF20” for “KYE28, KYE21”

RAW 264.7 macrophages = test: NO production of stimulated macrophages (Griess reaction); format: cell-based, mouse; conditions: for NO-release of LPS-stimulated macrophages: E. coli or P. aeruginosa LPS, 10 ng/ml; for NO production: stimulated with E. coli LPS, LTA, PGN, zymosan A
Experimental: (§2) 3.5×10^5 cells were seeded in 96-well tissue culture plates (Nunc, 167008) in phenol red-free DMEM (Gibco) supplemented with 10% FBS and antibiotics. Following 6 hours of incubation to permit adherence, cells were stimulated with 10 ng/mL E. coli (0111:84) LPS (Sigma), lipoteichoic acid, peptioglycan, or zymosan, with and without peptides at the indicated doses (see figure legends and figures). The levels of NO in culture supernatants were determined after 24 hours from stimulation using the Griess reaction. Briefly, nitrite, a stable product of NO degradation, was measured by mixing 50 μl of culture supernatants with the same volume of Griess reagent (Sigma, G4410) and reading absorbance at 550 nm after 15 min. Phenol-red free DMEM with FBS and antibiotics were used as a blank. A standard curve was prepared using 0-80 μM sodium nitrite solutions in ddH20.
as §2, with “coli” for “coli (0111:84)”, “(0111:B4)” for “(Sigma), lipoteichoic acid, peptioglycan, or zymosan,”, “peptide of various doses.” for “peptides at the indicated doses (see figure legends and figures).”, “reaction (Pollock, Forstermann et al. 1991).” for “reaction.”

Sequence	IFN-γ in blood (E. coli 0111:B4 LPS)	IL-6 in blood (E. coli 0111:B4 LPS)	MCP-1 in blood (E. coli 0111:B4 LPS)	TNF-α in blood (E. coli 0111:B4 LPS)	IL-10 in blood (E. coli 0111:B4 LPS)	Survival (E. coli 0111:B4 LPS)	Weight (E. coli 0111:B4 LPS)	NO-release of LPS-stimulated macrophages (RAW 264.7 macrophages)	NO production (RAW 264.7 macrophages)	Platelet counts (E. coli 0111:B4 LPS)	Concentration eliminating LPS-induced NO-responses (RAW 264.7 macrophages; 10 ng/ml E. coli or P. aeruginosa LPS)
KYEITTIHNLFRKLTHRLFRR [KYE21]	significant reductions	significant reductions	significant reductions	significant reductions	an increase in IL-10 was observed after 8 h	dramatic improvement on survival	full recovery of weight	significantly inhibited NO-release	blocks NO production	–	–
KYEITTIHNLFRKLTHRLFRRNFGYTLR [KYE28]	significant reductions	significant reductions	significant reductions	significant reductions	an increase in IL-10 was observed after 8 h	dramatic improvement on survival	full recovery of weight	significantly inhibited NO-release	blocks NO production	increased platelet levels after 20 h	–
NLFRKLTHRLFRRNFGYTLR [NLF20]	significant reductions	–	–	–	an increase in IL-10 was observed after 8 h and 20 h	dramatic improvement on survival	full recovery of weight	–	blocks NO production	significantly increased platelets	20 to 40 µM
